Assay results from US6476025B1, “Phenylphennanthridines with PDE-IV inhibiting activity” (Altana Pharma AG, priority 1999, dated 2002).

Tests used:
PDE4 = experiment: Inhibition of PDE4 activity (method of Bauer and Schwabe, adapted to microtiter plates); type: biochemical; conditions: inhibitory concentration as −log IC50 (mol/l)
Method: The activity test was carried out according to the method of Bauer and Schwabe, which was adapted to microtiter plates (Naunyn-Schmiedeberg's Arch. Pharmacol. 1980, 311, 193-198). The PDE reaction takes place in the first step here. In a second step, the resulting 5′-nucleotide is cleaved by a 5′-nucleotidase of the snake venom of Crotalus atrox to the uncharged nucleoside. In the third step, the nucleoside is separated from the remaining charged substrate on ion-exchange columns. The columns are eluted directly into minivials, into which 2 ml of scintillator fluid are additionally added, for counting using 2 ml of 30 mM ammonium formate (pH 6.0).
The inhibitory values determined for the compounds according to the invention [inhibitory concentration as −log Ic50 (mol/l)] follow from the following Table A, in which the numbers of the compounds correspond to the numbers of the examples.

| Compound | melting point | −log IC50, inhibition of the PDE4 activity (PDE4) |
| --- | --- | --- |
| COc1cc2c(cc1OC)[C@@H]1CCCC[C@@H]1N=C2c1cccc(OCc2ccccc2)c1 [Compound 7, (−)-cis-8,9-Dimethoxy-6-(3-benzyloxyphenyl)-1,2,3,4,4a,10b-hexahydrophenanthridine] | 118 to 120 °C | 8.40 |
| COc1cc2c(cc1OC)[C@@H]1CCCC[C@@H]1N=C2c1ccc(Oc2ccccc2)cc1 [Compound 4, (−)-cis-8,9-Dimethoxy-6-(4-phenoxyphenyl)-1,2,3,4,4a,10b-hexahydrophenanthridine] | 110 to 115 °C | 7.52 |
| COc1cc2c(cc1OC)C1CCCCC1N=C2c1ccc(NC(C)=O)c(OCC2CC2)c1 (single isomer, unassigned; (-)) [Compound 45, (−)-cis-8,9-Dimethoxy-6-[(3-cyclopropylmethoxy-4-acetamido)phenyl]-1,2,3,4,4a,10b-hexahydrophenanthridine] |  | 8.04 |
| COc1cc2c(cc1OC)[C@@H]1CCCC[C@@H]1N=C2c1ccc(OC)c(OC2CCCC2)c1 [Compound 9, (−)-cis-6-(3-Cyclopentyloxy-4-methoxyphenyl)-8,9-dimethoxy-1,2,3,4,4a,10b-hexahydrophenanthridine] |  | 7.79 |
| COc1cc2c(cc1OC)[C@@H]1CCCC[C@@H]1N=C2c1ccc(OC(F)F)c(OCC2CC2)c1 [Compound 42, (−)-cis-8,9-Dimethoxy-6-(3-cyclopropylmethoxy-4-difluoromethoxyphenyl)-1,2,3,4,4a,10b-hexahydrophenanthridine] |  | 7.43 |
| COc1cc2c(cc1OC)[C@@H]1CCCC[C@@H]1N=C2c1cc(OCC2CC2)cc(OCC2CC2)c1 [Compound 41, (−)-cis8,9-Dimethoxy-6-[3,5-bis(cyclopropylmethoxy)phenyl]-1,2,3,4,4a,10b-hexahydrophenanthridine] |  | 8.03 |
| COc1cc2c(cc1OC)[C@@H]1CCCC[C@@H]1N=C2c1ccc(C(=O)c2cccc(Cl)c2)cc1 (relative stereo) [Compound 28, (−)-cis-8,9-Dimethoxy-6-[4-(3-chlorbenzoyl)phenyl]-1,2,3,4,4a,10b-hexahydrophenanthridine] |  | 7.61 |
| COc1cc2c(cc1OC)C1CCCCC1N=C2c1ccc(C(C)=O)cc1 (single isomer, unassigned; (-)) [Compound 2, (−)-cis-8,9-Dimethoxy-6-(4-acetophenyl)-1,2,3,4,4a,10b-hexahydrophenanthridine] |  | 7.27 |
| COc1cc2c(cc1OC)[C@@H]1CCCC[C@@H]1N=C2c1cccc(OS(C)(=O)=O)c1 [Compound 13, (−)-cis-8,9-Dimethoxy-6-(3-methanesulfonyloxyphenyl)-1,2,3,4,4a,10b-hexahydrophenanthridine] |  | 8.33 |
| COc1ccc(Oc2cccc(C3=N[C@H]4CCCC[C@H]4c4cc(OC)c(OC)cc43)c2)cc1 [Compound 36, (−)-cis-8,9-Dimethoxy-6-[3-(4-methoxyphenoxy)phenyl]-1,2,3,4,4a,10b-hexahydrophenanthridine] |  | 8.78 |

More lines, main results first:

| melting point | Compound | −log IC50, inhibition of the PDE4 activity (PDE4) |
| --- | --- | --- |
| 112.5 to 114 °C | COc1cc2c(cc1OC)[C@@H]1CCCC[C@@H]1N=C2c1cccc(C(C)=O)c1 [Compound 49, (−)cis-8,9-Dimethoxy-6-(3-acetylphenyl)-1,2,3,4,4a,10b-hexahydrophenanthridine] | 7.17 |
| 147 to 152 °C | COc1cc2c(cc1OC)[C@@H]1CCCC[C@@H]1N=C2c1ccc(OC)c(N2CCCC2=O)c1 [Compound 47, (−)-cis-8,9-Dimethoxy-6-[4-methoxy-3-(2-oxopyrrolidin-1-yl)phenyl]-1,2,3,4,4a,10b-hexahydrophenanthridine] | 7.33 |
| 124 to 125 °C | COC(=O)Cc1ccc(C2=N[C@H]3CCCC[C@H]3c3cc(OC)c(OC)cc32)cc1 [Compound 18, (−)-cis-8,9-Dimethoxy-6-(4-methoxycarbonylmethylphenyl)-1,2,3,4,4a,10b-hexahydrophenanthridine] | 7.49 |
| 168 to 177 °C | COc1cc2c(cc1OC)C1CCCCC1N=C2c1ccc(OC)c(N2C(=O)CCC2=O)c1 (single isomer, unassigned; (-)) [Compound 48, (−)-cis-8,9-Dimethoxy-6-{[3-(2,5-dioxopyrrolidin-1-yl)-4-methoxy]phenyl}-1,2,3,4,4a,10b-hexahydrophenanthridine] | 7.67 |
| 93 to 98 °C | COc1cc2c(cc1OC)[C@@H]1CCCC[C@@H]1N=C2c1ccc(C(=O)CC2CC2)cc1 [Compound 24, (−)-cis-8,9-Dimethoxy-6-[4-cyclopropylmethylcarbonylphenyl]-1,2,3,4,4a,10b-hexahydrophenanthridine] | 7.48 |
| 146 to 148 °C | COc1cccc(C(=O)c2ccc(C3=N[C@H]4CCCC[C@H]4c4cc(OC)c(OC)cc43)cc2)c1 [Compound 30, (−)-cis-8,9-Dimethoxy-6-[4-(3-methoxybenzoyl)phenyl]-1,2,3,4,4a,10b-hexahydrophenanthridine] | 7.94 |
| 54 to 61 °C | COc1cc2c(cc1OC)[C@@H]1CCCC[C@@H]1N=C2c1cccc(OCC2CC2)c1 [Compound 35, (−)-cis-8,9-Dimethoxy-6-(3-cyclopropylmethoxyphenyl)-1,2,3,4,4a,10b-hexahydrophenanthridine] | 7.43 |
| 151 to 153 °C | CCOc1cc2c(cc1OC)C(c1ccc(CCl)cc1)=N[C@H]1CCCC[C@@H]21 (relative stereo) [Compound 19, cis-6-(4-Chloromethylphenyl)-9-ethoxy-8-methoxy-1,2,3,4,4a,10b-hexahydrophenanthridine] | 8.59 |
| 182 to 185 °C | COc1cc2c(cc1OC)C1CCCCC1N=C2c1cccc(C(=O)N2CCCCC2)c1 (single isomer, unassigned; (-)) [Compound 17, (−)-cis-8,9-Dimethoxy-[3-(piperidin-1-ylcarbonyl)phenyl]-1,2,3,4,4a,10b-hexahydrophenanthridine] | 8.13 |
| 114 to 117 °C | COc1cc2c(cc1OC)[C@@H]1CCCC[C@@H]1N=C2c1ccc(C(=O)CC(C)C)cc1 [Compound 23, (−)-cis-8,9-Dimethoxy-6-[4-(3-methylbutyryl)phenyl]-1,2,3,4,4a,10b-hexahydrophenanthridine] | 7.5 |
| 102 to 105 °C | CCOc1cc2c(cc1OC)C(c1ccc(OCC)c(OCC3CC3)c1)=NC1CCCCC21 (single isomer, unassigned; (-)) [Compound 39, (−)-cis-9-Ethoxy-8-methoxy-6-[(3-cyclopropylmethoxy-4-ethoxy)phenyl]-1,2,3,4,4a,10b-hexahydrophenanthridine] | 8.87 |
